By EC50 is commonly meant the concentration at which the effect is half-maximal.

A value given as a limit tells only on which side of the number the result lay.

The experiment deals with T1, mGluR2 receptor (metabotropic glutamate receptor 2) (Homo sapiens, UniProt Q14416).
T1 construct: expressed in transfected cells
T1 sequence (Q14416 19-872, species assumed): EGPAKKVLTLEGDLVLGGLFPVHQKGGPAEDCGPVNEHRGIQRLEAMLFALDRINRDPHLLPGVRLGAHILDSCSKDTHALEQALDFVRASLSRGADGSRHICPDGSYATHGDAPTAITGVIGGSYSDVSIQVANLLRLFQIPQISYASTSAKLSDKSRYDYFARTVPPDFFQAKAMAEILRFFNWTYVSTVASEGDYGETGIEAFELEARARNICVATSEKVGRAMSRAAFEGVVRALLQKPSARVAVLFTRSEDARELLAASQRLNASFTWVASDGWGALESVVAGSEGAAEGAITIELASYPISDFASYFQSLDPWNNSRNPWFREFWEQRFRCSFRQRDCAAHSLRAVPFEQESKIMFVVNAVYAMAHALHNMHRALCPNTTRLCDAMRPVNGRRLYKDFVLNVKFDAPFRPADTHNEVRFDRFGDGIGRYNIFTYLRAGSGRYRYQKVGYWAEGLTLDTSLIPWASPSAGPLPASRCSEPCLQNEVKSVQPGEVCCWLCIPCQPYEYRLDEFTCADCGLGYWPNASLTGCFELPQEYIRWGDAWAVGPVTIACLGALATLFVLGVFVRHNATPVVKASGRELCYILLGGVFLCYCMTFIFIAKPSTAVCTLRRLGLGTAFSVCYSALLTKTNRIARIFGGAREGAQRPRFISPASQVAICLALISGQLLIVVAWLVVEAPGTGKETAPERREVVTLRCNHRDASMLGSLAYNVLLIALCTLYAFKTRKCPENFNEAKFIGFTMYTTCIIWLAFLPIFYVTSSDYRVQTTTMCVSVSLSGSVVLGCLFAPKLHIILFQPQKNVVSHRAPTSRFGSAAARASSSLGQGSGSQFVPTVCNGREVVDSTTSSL
Put plainly: mGluR2 potentiator screen (FLIPR, EC10-EC20 glutamate challenge).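 Note: HEK cells stably expressing human mGluR2 with GL15 G protein, Fluo-4 calcium fluorescence read on FLIPR, compounds added before an EC10-EC20 glutamate challenge to detect potentiation.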 It counts as cell-based. The note with it: geometric mean; read-out: mGluR 2 EC50 (geometric mean).
Consider `O=C1OC(c2ccccc2)CN1Cc1ccc(OC2CCOCC2)cc1` (stereo not drawn) [Example 36], for which the EC50 amounted to 571 nM. The result for `CC(C)Oc1ccc(-c2ccc(CN3C[C@@H](C)OC3=O)cc2)cc1F` [Example 277] reads 53.1 nM; that for `COc1ccc(Cl)cc1-c1ccc(CN2C[C@@H](C)OC2=O)cc1` [Example 196], 48.9 nM. The result for `Cc1cc(CN2CC(c3cccnc3)OC2=O)ccc1OCC1CCCCC1` (stereo not drawn) [Example 250, 3-[4-(Cyclohexylmethoxy)-3-methylbenzyl]-5-pyridin-3-yl-1,3-oxazolidin-2-one] reads 1870 nM. With `Cc1onc(-c2ccccc2)c1COc1ccc(CN2CC(C)OC2=O)cc1` (stereo not drawn) [Example 132] the figure was 1670 nM; with `CCOC(=O)c1ccccc1-c1ccc(CN2C[C@@H](C)OC2=O)cc1` [Example 197], 1830 nM. For `CC1CN(Cc2ccc(OC3CCc4ccccc43)cc2)C(=O)O1` (stereo not drawn) [Example 140], the EC50 was 85.8 nM.

For `O=C1OCCCN1Cc1ccc(OCCC2CCCCC2)cc1` [Example 34], the EC50 was found to be 282 nM. With `Cc1ccc(-c2ccc(CN3C[C@@H](C)OC3=O)cc2)c(F)c1` [Example 232] the figure was less than 39.2 nM; with `CC1CN(Cc2ccc(OCc3ccc(F)cc3)cc2)C(=O)O1` (stereo not drawn) [Example 110], 243 nM; with `C[C@@H]1CN(Cc2ccc(OCCC(C)(C)C)cc2)C(=O)O1` [Example 213], 20.1 nM. Regarding `COc1ccc(F)cc1-c1ccc(CN2C[C@@H](C)OC2=O)cn1` [Example 267], the EC50 stood at 1160 nM. With `CC(Oc1ccc(CN2CCN(C(C)C)CC2=O)cc1)C1CCCCC1` (stereo not drawn) [Example 201], the EC50 was determined as 763 nM. With `CC(C)COc1ccc(CN2C(=O)OC[C@H]3CCCC[C@H]32)cc1` [Example 2] the figure was 637 nM.

As for `C[C@@H]1CN(Cc2ccc(OCCC3CCCCC3)c(F)c2)C(=O)O1` [Example 241, (5R)-3-[4-(2-cyclohexylethoxy)-3-fluorobenzyl]-5-methyl-1,3-oxazolidin-2-one], the EC50 was determined as 418 nM. Take `C[C@@H]1CN(Cc2ccc(-c3ccc(C(F)(F)F)cc3C(F)(F)F)nc2)C(=O)O1` [Example 276]: the EC50 turned out to be 788 nM. Turning to `CC(Oc1ccc(CN2CC(c3ccncc3)OC2=O)cc1)C1CCCCC1` (stereo not drawn) [Example 209], the EC50 stood at 639 nM. Take `C[C@@H]1CN(Cc2ccc(-c3ccc(Cl)c(F)c3)cc2)C(=O)O1` [Example 237]: the EC50 came to 112 nM. For the compound `CC(Oc1ccc(CN2CCN(C(C)CC3CC3)CC2=O)cc1)C1CCCCC1` (stereo not drawn) [Example 219], the EC50 was 697 nM. With `COc1ccc(F)c(-c2ccc(CN3C[C@@H](C)OC3=O)cn2)c1` [Example 260] the figure was 858 nM; with `COc1cccc(COc2ccc(CN3CC(C)OC3=O)cc2)c1` (stereo not drawn) [Example 103], 221 nM.

The values are drawn from patent US20090137577A1, “HETEROCYCLIC COMPOUNDS” (Pfizer Inc., priority 2007, published 2009).
